“Also recorded” adds a separate entry of the source.
Tested on: pigs (fattening animals of the Piétrain×Danbred breed)
Assay: Tail biting (caudophagia) injury scoring in fattening pigs fed guanidinoacetic acid in the feed
Assay type: in vivo, pig (Sus scrofa domesticus)
Conditions: for Number of animals score 3 or 4: regardless of available space; for Number of animals with score 1 (without abnormalities) / Number of animals with score 2 (dry bite marks, not bleeding) / Number of animals with score 3 (bloody bite marks, moderate inflammation) / Number of animals with score 4 ((partial) loss, high-grade inflammation, large bleeding wounds) / Number of animals, total score 3 + 4: 96 animals
Description: A total of 1440 pigs (fattening animals of the Piétrain×Danbred breed) were used.
From the 91st day of life, the experiment started with different dosage of different amounts of guanidinoacetic acid in the feed.
After 60 days of life, 1152 animals were selected for the continuation of the experiment: Here, conspicuously weak animals and animals with easily recognizable injuries to the tail or other body parts were not used.
In the subsequent fattening period, the pigs were kept in 72 pens of 16 animals each on concrete slats without bedding. A drawing of the experimental setup is shown with FIGS. 1 to 3. The slat width was 18 mm with a tread width of 80 mm. Feed was provided ad libitum by means of type RM 05 mash feeders from IBO Stalltechnik GmbH. The feed was supplied via floury feed.
For each experimental parameter, 6 pens of mixed-sex were housed. For an even distribution, the animals were first divided into 4 main groups 1, 2, 3 and 4 of 288 animals each. Then, from each main group, animals were divided into 3 subgroups A, B and C (SG A, SG B, SG C) of 96 animals each, and from each subgroup, animals were separated into 6 pens. Thus, there were 12 experimental parameters with 6 replications each and 16 animals per replication, corresponding to 1152 animals.
The 72 pens were divided into 6 sections in a stable. All 4 main groups were represented in each section, with a pen size assigned to each main group (see Table 1). The pen sizes of main groups 3 and 4 were realized by removing railings from the standard pen of 12 m^2. To realize the pen size of main group 2, a part of a 24 m^2 pen was reduced by a railing.
Feeding from 91 days of life was performed in 2 phases, which were identical across all 4 main groups.
For subgroups B and C, guanidinoacetic acid was added to the feed in amounts of 0.04 wt. % and 0.12 wt. %, respectively, relative to the solid feed.
A maximum of 2 failures occurred per experimental regime during the fattening phase. Here, the score was evaluated at the time of the failure.
Essential for an evaluation of the stand is the ratio of uninjured or only slightly injured animals to moderately and severely injured animals. Since dry, non-bloody bite marks result from a playful non-aggressive act, animals with score 2 were added to the non-injured animals. Harmful to animal welfare is considered to occur at score 3 and above, i.e., bloody bite marks, resulting from aggressive acts that are no longer playful. Therefore, for an evaluation, the numbers for scores 3 and 4 were added and the percentage of these animals relative to the total number of the respective experimental group was evaluated.

[1] = experiment B1: 0.04 wt. % GAA in feed, 0.75 m^2/animal
[2] = experiment B2: 0.04 wt. % GAA in feed, 0.9 m^2/animal
[3] = experiment B3: 0.04 wt. % GAA in feed, 1.5 m^2/animal
[4] = experiment B4: 0.04 wt. % GAA in feed, 2.25 m^2/animal
[5] = experiment C1: 0.12 wt. % GAA in feed, 0.75 m^2/animal
[6] = experiment C2: 0.12 wt. % GAA in feed, 0.9 m^2/animal
[7] = experiment C3: 0.12 wt. % GAA in feed, 1.5 m^2/animal
[8] = experiment C4: 0.12 wt. % GAA in feed, 2.25 m^2/animal
[9] = guanidinoacetic acid given orally to pigs

N=C(N)NCC(=O)O [guanidinoacetic acid, Guanidinoacetic acid]
Number of animals score 3 or 4 (0.04 wt. % GAA in feed, experiments B1 + B2 + B3 + B4 pooled, 384 animals): 36 | Injured animals (score 3 or 4) (0.04 wt. % GAA in feed, experiments B1 + B2 + B3 + B4 pooled, 384 animals, without supplementation 12.2%): 9.4% | Reduction of injured animals versus no supplementation (0.12 wt. % GAA in feed, 0.9 m^2/animal): almost halved the number of injured animals; also recorded: reduction of injured animals to almost half | Reduction of injured animals versus no supplementation (0.12 wt. % GAA in feed, 1.5 m^2/animal): more than halved; also recorded: reduction of injured animals to more than half | Number of animals score 3 or 4 (0.12 wt. % GAA in feed, experiments C1 + C2 + C3 + C4 pooled, 384 animals): 32 | Injured animals (score 3 or 4) (0.12 wt. % GAA in feed, experiments C1 + C2 + C3 + C4 pooled, 384 animals, without supplementation 12.2%): 8.3% | Number of animals with score 1 (without abnormalities) [1]: 41 | Number of animals with score 2 (dry bite marks, not bleeding) [1]: 41 | Number of animals with score 3 (bloody bite marks, moderate inflammation) [1]: 10 | Number of animals with score 4 ((partial) loss, high-grade inflammation, large bleeding wounds) [1]: 4 | Number of animals, total score 3 + 4 [1]: 14 | Injured animals (score 3 or 4) (experiment B1: 0.04 wt. % GAA in feed, 0.75 m^2/animal, without supplementation 15.6%): 14.6% | Number of animals with score 1 (without abnormalities) [2]: 50 | Number of animals with score 2 (dry bite marks, not bleeding) [2]: 36 | Number of animals with score 3 (bloody bite marks, moderate inflammation) [2]: 8 | Number of animals with score 4 ((partial) loss, high-grade inflammation, large bleeding wounds) [2]: 2 | Number of animals, total score 3 + 4 [2]: 10 | Injured animals (score 3 or 4) (experiment B2: 0.04 wt. % GAA in feed, 0.9 m^2/animal, without supplementation 14.6%): 10.4% | Number of animals with score 1 (without abnormalities) [3]: 54 | Number of animals with score 2 (dry bite marks, not bleeding) [3]: 36 | Number of animals with score 3 (bloody bite marks, moderate inflammation) [3]: 5 | Number of animals with score 4 ((partial) loss, high-grade inflammation, large bleeding wounds) [3]: 1 | Number of animals, total score 3 + 4 [3]: 6 | Injured animals (score 3 or 4) (experiment B3: 0.04 wt. % GAA in feed, 1.5 m^2/animal, without supplementation 11.5%): 6.3% | Number of animals with score 1 (without abnormalities) [4]: 55 | Number of animals with score 2 (dry bite marks, not bleeding) [4]: 35 | Number of animals with score 3 (bloody bite marks, moderate inflammation) [4]: 6 | Number of animals with score 4 ((partial) loss, high-grade inflammation, large bleeding wounds) [4]: 0 | Number of animals, total score 3 + 4 [4]: 6 | Injured animals (score 3 or 4) (experiment B4: 0.04 wt. % GAA in feed, 2.25 m^2/animal, without supplementation 7.3%): 6.3% | Number of animals with score 1 (without abnormalities) [5]: 40 | Number of animals with score 2 (dry bite marks, not bleeding) [5]: 43 | Number of animals with score 3 (bloody bite marks, moderate inflammation) [5]: 10 | Number of animals with score 4 ((partial) loss, high-grade inflammation, large bleeding wounds) [5]: 3 | Number of animals, total score 3 + 4 [5]: 13 | Injured animals (score 3 or 4) (experiment C1: 0.12 wt. % GAA in feed, 0.75 m^2/animal, without supplementation 15.6%): 13.5% | Number of animals with score 1 (without abnormalities) [6]: 52 | Number of animals with score 2 (dry bite marks, not bleeding) [6]: 36 | Number of animals with score 3 (bloody bite marks, moderate inflammation) [6]: 6 | Number of animals with score 4 ((partial) loss, high-grade inflammation, large bleeding wounds) [6]: 2 | Number of animals, total score 3 + 4 [6]: 8 | Injured animals (score 3 or 4) (experiment C2: 0.12 wt. % GAA in feed, 0.9 m^2/animal, without supplementation 14.6%): 8.3% | Number of animals with score 1 (without abnormalities) [7]: 56 | Number of animals with score 2 (dry bite marks, not bleeding) [7]: 35 | Number of animals with score 3 (bloody bite marks, moderate inflammation) [7]: 4 | Number of animals with score 4 ((partial) loss, high-grade inflammation, large bleeding wounds) [7]: 1 | Number of animals, total score 3 + 4 [7]: 5 | Injured animals (score 3 or 4) (experiment C3: 0.12 wt. % GAA in feed, 1.5 m^2/animal, without supplementation 11.5%): 5.2% | Number of animals with score 1 (without abnormalities) [8]: 55 | Number of animals with score 2 (dry bite marks, not bleeding) [8]: 35 | Number of animals with score 3 (bloody bite marks, moderate inflammation) [8]: 5 | Number of animals with score 4 ((partial) loss, high-grade inflammation, large bleeding wounds) [8]: 1 | Number of animals, total score 3 + 4 [8]: 6 | Injured animals (score 3 or 4) (experiment C4: 0.12 wt. % GAA in feed, 2.25 m^2/animal, without supplementation 7.3%): 6.3% | Behavioral abnormalities in the form of tail biting (caudophagia) compared to the untreated control group [9]: less behavioral abnormalities in the form of tail biting | Biting attacks on conspecifics compared to an untreated control group [9]: fewer biting attacks on conspecifics

Reference: patent publication US11633373B2, “Method for reduction of behavioral disorders in pigs” (Alzchem Trostberg GmbH, priority 2020, dated 2023)
